Patent US10517952B2, “Nucleophile-triggered degradable materials and methods of making and using the same” (GEORGIA TECH RESEARCH CORPORATION, priority 2014, dated 2019)
Values joined by “and” are separate entries in the source; they are usually repeats but may differ in a detail not shown here. Equal values may be shown once.

What was measured:
[1] = Release of entrained cargo from PEG-OND hydrogels; type: physicochemical
Protocol: Finally, the diffusion of entrained, rather than covalently anchored, cargos of different sizes out of OND hydrogels of differing stabilities was measured. This was done with a small molecule (carboxyfluorescein), a globular protein (fluorescein-labeled bovine serum albumin, BSA), and a 30-nm protein nanoparticle (fluorescein-labeled bacteriophage Qb virus-like particle). The first and last species have no available thiol groups; the second was reacted with N-ethylmaleimide before gelation to cap cysteine-34 and avoid tethering of the protein cargo to the hydrogel network. Hydrogels derived from 4-PEG-SH and 7a, 7b, or 8 were formed in the presence of each cargo; the speed of this reaction made it highly unlikely that OND connectors were addressed by protein amine groups under these conditions.
Three sets of three 60 μL gels were prepared using linkers 7a, 7b, and 8, respectively. The first set contained 1 mM small molecule probe 5/6-carboxyfluorescein, while the second and third sets contained FITC labeled BSA and Qβ virus-like particle, respectively. The gels were allowed to set for 30 minutes at room temperature before dilution with 3 mL of pH 7.4 100 mM phosphate buffered saline. The samples were incubated at 37° C. and the increase in absorbance of the supernatant at 497 nm was monitored. The fraction of released dye was plotted against incubation time. Least-squares kinetic fitting to a first-order rate law was performed for release profiles obtained for carboxyfluorescein cargo, and for the release of BSA from non-degradable PEG-EONB (8) hydrogel (Solver plug-in, Microsoft Excel).

[2] = Residual hydrogel thiol content with fluorogenic OND probe S-6; type: physicochemical; conditions: for Residual thiols in the gel network, average: average of both sets of gels from linkers 7a and 8, % of input macromer thiol content; for Gel Fraction % Residual Thiol: residual thiol in the gel, % of initial thiol content of input macromer; for Sol Fraction % Residual Thiol: thiol in supernatant, % of input thiol, swelled 18 hours at 4° C., pH 7.4 PBS, probe S-6
Protocol: The thiol content of cured hydrogels was determined by swelling gels in the presence of a small fluorogenic OND S-6, which we have previously described in our lab.
This probe reacts with thiols to produce a fluorescent adduct (FIG. 14A). […] Thus, the concentration of reagent S-6 in solution can be determined by quenching with thiol. Similarly, reagent S-6 can be used to quantify thiol in solution.
Based on cargo diffusion studies (see section X of this document), we expected that probe S-6 should easily permeate the hydrogel network under swelling conditions and react with accessible residual thiols present in the gel network. In order to test this hypothesis, 60 μL hydrogels were freshly prepared from 4-PEG-SH macromer and either linkers 8 or 7a as described in section III of this document. After curing for 20 minutes at room temperature, 3 mL of pH 7.4 0.1M PBS buffer containing 200 μM probe S-6 was added, and the gel was swelled at 4° C. for 18 hours. To account for hydrolytic degradation of our thiol probe during incubation, a sample was prepared with S-6 in buffer alone (lacking 4-PEG-SH and bis-OND linkers). After swelling, the gels were observed under long-wave ultraviolet light to reveal strongly fluorescent gels and weakly fluorescent supernatants (FIG. 15). […] Presumably the fluorescence in the supernatant of samples containing gels is due to soluble fraction of 4-PEG-SH macromer and oligomers not incorporated into the gel network.
In order to calculate the amount of residual thiol present in the soluble fraction, aliquots of the supernatant were removed and fluorescence was measured. Thiol content of the soluble fraction was determined by interpolation using the standard curve shown in FIG. 14 after accounting for fluorescence due to hydrolytic degradation. […] This amount corresponds well with the soluble fraction (soluble fraction=1−gel fraction) determined from swelling experiments (see Table 1 of main text). To determine residual thiol content present in gels, aliquots of the supernatant were quenched with a large excess (10 mM) of N-acetyl cysteine and the increase in fluorescence was measured to determine the amount of unreacted S-6 remaining in the supernatant. Accounting for the amount of probe already consumed by reaction with soluble fraction thiols and by hydrolytic degradation, the amount of residual thiol accessible for post-modification present in the gel was calculated as 13.4±1.4% and 10.8±2.4% of the initial thiol content of input macromer (average of 11.8±3.3 for both sets of gels prepared from linkers 7a and 8).

[3] = Calculation of hydrogel mesh size from equilibrium swelling data; type: physicochemical; conditions: for Average mesh size: average for equilibrium swelled hydrogels from linkers 7a, 7b and 8; for Calculated mesh size: equilibrium-swollen gels
Protocol: Using the calculated molecular weight between crosslinks, Mc, and the method previously described by Canal and Peppas, the hydrogel mesh size was calculated. First, the root-mean-square end-to-end distance of the polymer chains in the network, (r0^2)^1/2, was calculated as follows: (r0^2)^1/2=lCn^1/2n^1/2 (Equation S10) where l is the average bond length in the polymer (0.146 nm for PEG) and Cn is the characteristic ratio of the polymer (4.0 for PEG). The average number of bonds between crosslinks, n is calculated using the following equation:
[formula] where Mc is the average molecular weight between crosslinks, calculated as described in the previous section, and Mr is the molecular weight of the repeating unit for the PEG macromer (44 g/mol). Finally, the mesh size, ξ, is calculated using the following relationship: ξ=v2,s^−1/3(r0^2)^1/2 (Equation S12) where v2, is the partial volume of polymer in the equilibrium swollen hydrogel, and is calculated using the experimentally determined equilibrium weight swelling ratios.

[4] = Degradation of neat PEG-OND hydrogels (inversion test, time-lapse photography); type: physicochemical
Protocol: Degradation rates of the PEG-OND hydrogels in the absence of swelling buffer varied with temperature and with the identity of OND used to form the gel. […] In comparison, gels formed using 7b were stable for more than 60 hours at 37° C., and approximately 13 hours at 50° C.
Three 500 μL 3.5 wt % hydrogels were formed with bis-ONDs 7a and 7b, and bis-EONB 8, respectively, in 2 mL vials with caps. The sealed vials were incubated in an oil bath maintained at 50° C. The samples were periodically removed from heat and the vials were inverted to determine if the gel was still intact, or whether the sample was a free-flowing liquid, as described in the main text. The gel formed between 4-PEG-SH and bis-EONB 8 in FIG. 9 was removed from heat after 5 days, and stored at room temperature in a sealed vial. The hydrogel is still intact at the time of writing (5 days at 50° C. followed by >1 year at room temperature). The inversion test was routinely used in all stability experiments to verify hydrogel integrity during incubation.
In order to observe reverse gelation upon prolonged heating of neat hydrogels, time-lapse photography was carried out. Briefly, 600 μL hydrogels comprised of 3.5 wt % 4-PEG-SH+bis-OND/EONB (7a, 7b, and 8, respectively) in pH 7.4 100 mM potassium phosphate buffer containing 7% DMSO (v/v) were formed in glass culture tubes and allowed to set for 15 minutes. A glass bead (˜160 mg, stained with blue Sharpie-brand marker to improve visibility) was placed carefully on top of each gel, and a drop of silicon oil was added to prevent evaporation at the surface of the gels. The tubes were sealed with lab parafilm and incubated in a 50° C. oil bath. Photos were collected every 2 minutes for ˜22 hours using Chronolapse software (v.1.0.4) and a Creative Labs webcam. Photographs were compiled in chronological order using iMovie software, with each photo occupying one 0.1 s frame. The resulting video is available as S1 Video, mentioned above.

| Compound | Fraction of BSA tethered to the network / not freely diffusing from the gel ([1]; FITC-BSA with ˜0.4 accessible thiols per protein) [%] | Release of entrained BSA from the gel compared with more stable matrices ([1]; N-ethylmaleimide-capped FITC-BSA, pH 7.4, 37° C.) | Residual thiols in the gel network, average [2] [%] | Gel Fraction % Residual Thiol [2] | Sol Fraction % Residual Thiol [2] [%] | Average mesh size [3] [nm] | Calculated mesh size [3] [nm] | Gel integrity on extended heating (inversion test) ([4]; neat gel, 50° C.) | Gel stability by inversion test ([4]; neat gel, no swelling buffer, 4° C.) | Time gel is stable / collapses (inversion test) ([4]; neat gel, no swelling buffer, 37° C.) [h] | Time gel is stable / collapses (inversion test) ([4]; neat gel, no swelling buffer, 50° C.) [h] | melting point [°C] | Release of entrained Qβ virus-like particles from the gel ([1]; pH 7.4, 37° C.) | Inversion test for hydrogel degradation (FIG. 1B) [4] | Long-term gel integrity ([4]; 5 days at 50° C. followed by >1 year at room temperature) | Gel stability by time-lapse photography, gel supporting a glass bead ([4]; neat gel, heating (50° C.)) |
| --- | --- | --- | --- | --- | --- | --- | --- | --- | --- | --- | --- | --- | --- | --- | --- | --- |
| COC(=O)C1=C(C(=O)OC)C2(CNC(=O)CCCC(=O)NCC34C=CC(O3)C(C(=O)OC)=C4C(=O)OC)C=CC1O2 [Linker 7a, Tetramethyl 1,1′-((glutaroylbis(azanediyl))bis(methylene))bis(7-oxabicyclo[2.2.1]hepta-2,5-diene-2,3-dicarboxylate)] | ~20 | markedly faster | 11.8±3.3 | 10.8±2.4% | 8.1±3.2 | 14.0±1.0 | 15.2 ± 0.9 | collapsed | stable for more than two weeks | 12 | ≤ 3 | 163 to 167 |  |  |  |  |
| COC(=O)C1=C(C(=O)OC)C2(CNC(=O)CCCC(=O)NCC34OC(C(C(=O)OC)=C3C(=O)OC)C3OC34)OC1C1OC12 (centres unmarked) [Linker 8, Tetramethyl 1,1′-((glutaroylbis(azanediyl))bis(methylene))bis(3,8-dioxatricyclo[3.2.1.0^2,4]oct-6-ene-6,7-dicarboxylate)] |  |  | 11.8±3.3 | 13.4±1.4% and 12.8 ± 2.2% | 2.1±0.4 | 14.0±1.0 | 14.0 ± 0.9 | remained intact |  |  |  | 125 to 130 | not released | stable indefinitely | still intact | remained intact |
